A short description of series [1]: Basicity, neutrality or acidity. In kind it is physicochemical.
A short description of series [2]: Stability in aqueous solution. In kind it is physicochemical.
Another series is described as follows: Solubility in solvents. In kind it is physicochemical.
Series [3] concerns Salmonella typhosa Boxhill 58. The series can be described thus: Antimicrobial spectrum, agar plate dilution method. It is filed as cell-based. Conditions: Salmonella enterica, read-out: Minimal inhibitory concentration. From the text:
(§1) The biological characteristics of G-6302 are as follows. The antimicrobial spectra of G-6302 and its sodium salt against various microorganisms are shown in Table 3 (agar plate dilution method.)
(§2) Medium = Trypticasesoy-broth-agar

Series [4] in a line: Acute toxicity in mice, intravenous.
For series [5] the following is noted: mouse, in vivo.
In series [6] the test system is Pseudomonas aeruginosa U-31. The series can be described thus: Antimicrobial spectrum, agar plate dilution method. In kind it is cell-based. Conditions: U31, Trypticasesoy-broth-agar, read-out: Minimal inhibitory concentration.
Text: as §1, §2

A further series relates to Escherichia coli T-7. The series can be described thus: Antimicrobial spectrum, agar plate dilution method. In kind it is cell-based. Conditions: T7, Trypticasesoy-broth-agar, read-out: Minimal inhibitory concentration.
Text: as §1, §2

Another series has as its system Escherichia coli NIHJ. The series can be described thus: Antimicrobial spectrum, agar plate dilution method. It is filed as cell-based. The conditions noted are these: Trypticasesoy-broth-agar, read-out: Minimal inhibitory concentration.
Text: as §1, §2

Series [7] relates to Proteus morganii IFO 3168. The series can be described thus: Antimicrobial spectrum, agar plate dilution method. It is filed as cell-based. Conditions: Morganella morganii, IFO3168, Trypticasesoy-broth-agar, read-out: Minimal inhibitory concentration.
Text: as §1, §2

The test system of series [8] is Proteus vulgaris IFO 3988. The series can be described thus: Antimicrobial spectrum, agar plate dilution method. It is filed as cell-based. The conditions noted are these: IFO3988, Trypticasesoy-broth-agar, read-out: Minimal inhibitory concentration.
Text: as §1, §2

In series [9] the test system is Streptococcus pyogenes E-14. The series can be described thus: Antimicrobial spectrum, agar plate dilution method. In kind it is cell-based. Conditions: E14, Trypticasesoy-broth-agar, read-out: Minimal inhibitory concentration.
Text: as §1, §2

A further series has as its system Klebsiella pneumoniae DT. The series can be described thus: Antimicrobial spectrum, agar plate dilution method. In kind it is cell-based. The conditions noted are these: Trypticasesoy-broth-agar, read-out: Minimal inhibitory concentration.
Text: as §1, §2

Series [10] relates to Staphylococcus aureus FDA 209P. The series can be described thus: Antimicrobial spectrum, agar plate dilution method. In kind it is cell-based. Conditions: FDA209P, Trypticasesoy-broth-agar, read-out: Minimal inhibitory concentration.
Text: as §1, §2

Series [11] deals with Serratia marcescens IFO 12648. The series can be described thus: Antimicrobial spectrum, agar plate dilution method. It is filed as cell-based. The conditions noted are these: IFO12648, Trypticasesoy-broth-agar, read-out: Minimal inhibitory concentration.
Text: as §1, §2

Series [12] deals with Proteus mirabilis IFO 3849. The series can be described thus: Antimicrobial spectrum, agar plate dilution method. Conditions: IFO3849, Trypticasesoy-broth-agar, read-out: Minimal inhibitory concentration. In kind it is cell-based.
Text: as §1, §2

Series [13] relates to Corynebacterium diphtheriae Toronto. The series can be described thus: Antimicrobial spectrum, agar plate dilution method. In kind it is cell-based. The conditions noted are these: Trypticasesoy-broth-agar, read-out: Minimal inhibitory concentration.
Text: as §1, §2

Series [14] concerns Bacillus subtilis PCI 219. The series can be described thus: Antimicrobial spectrum, agar plate dilution method. It is filed as cell-based. Conditions: PCI219, Trypticasesoy-broth-agar, read-out: Minimal inhibitory concentration.
Text: as §1, §2

The next series deals with Shigella flexneri EW-10. The series can be described thus: Antimicrobial spectrum, agar plate dilution method. It is filed as cell-based. Conditions: EW10, Trypticasesoy-broth-agar, read-out: Minimal inhibitory concentration.
Text: as §1, §2

The test system of the next series is gram-positive bacteria. The series can be described thus: Antimicrobial spectrum, summary in words. It is filed as cell-based. Conditions: summary of Table 3.
Text: as §1

A further series relates to gram-negative bacteria. The series can be described thus: Antimicrobial spectrum, summary in words. In kind it is cell-based. The conditions noted are these: summary of Table 3.
Text: as §1

The next series has as its system Escherichia coli. The series can be described thus: Protection of mice infected with Escherichia coli. It is filed as in vivo.
For series [15], the system named is Penicillium chrysogenum IFO 4626. The series can be described thus: Antimicrobial spectrum, agar plate dilution method. In kind it is cell-based. Conditions: IFO4626, Nutrient agar containing 1% of glucose, read-out: Minimal inhibitory concentration.
Text: as §1
(§3) *Medium = Nutrient agar containing 1% of glucose

For series [16], the system named is Saccharomyces cerevisiae IFO 0209. The series can be described thus: Antimicrobial spectrum, agar plate dilution method. It is filed as cell-based. Conditions: IFO0209, Nutrient agar containing 1% of glucose, read-out: Minimal inhibitory concentration.
Text: as §1, §3

The test system of series [17] is Candida albicans IFO 0583. The series can be described thus: Antimicrobial spectrum, agar plate dilution method. Conditions: IFO0583, Nutrient agar containing 1% of glucose, read-out: Minimal inhibitory concentration. In kind it is cell-based.
Text: as §1, §3

Series [18] concerns Aspergillus niger IFO 4066. The series can be described thus: Antimicrobial spectrum, agar plate dilution method. Conditions: IFO4066, Nutrient agar containing 1% of glucose, read-out: Minimal inhibitory concentration. In kind it is cell-based.
Text: as §1, §3

For a further series, the system named is Klebsiella pneumoniae. The series can be described thus: Protection of mice infected with Klebsiella pneumoniae. In kind it is in vivo.
[19] abbreviates: listed as sodium salt of G-6302.

Converted amounts (≈) assume the structure as drawn.

On to `COC1(NC(=O)C(C)NC(=O)CCC(N)C(=O)O)CN(S(=O)(=O)O)C1=O` (stereo not drawn) [crystals of G-6302], for which the “basicity, neutrality or acidity (compared with product of Example 1)” value in series [1] (crystals of Example 5) was “the same as those of the product obtained in Example 1”. Besides, the “stability (compared with product of Example 1)” value in [2] (crystals of Example 5) was “the same as those of the product obtained in Example 1”. The “solubility in solvents (compared with product of Example 1)” value in the series “Solubility in solvents” (crystals of Example 5) was “the same as those of the product obtained in Example 1”.

Turning to `COC1(NC(=O)C(C)NC(=O)CCC(N)C(=O)O)CN(S(=O)(=O)O)C1=O` (stereo not drawn) [G-6302 . Na], the MIC in series [3] was found to be 12.5 µg/mL (≈ 31.5 µM). The acute toxicity result in series [4] is given as “low”. For the same compound, in “Solubility in solvents” (setting [19]), the Solubility in acetone entry is “Insoluble” and the Solubility in methanol entry is listed as “sparingly soluble”. Also, the deaths result in series [5] is “no deaths”.

For the compound `COC1(NC(=O)C(C)NC(=O)CCC(N)C(=O)O)CN(S(=O)(=O)O)C1=O` (stereo not drawn) [Antibiotic G-6302], the MIC in series [6] is more than 100 µg/mL; with Escherichia coli T-7, 25 µg/mL (≈ 63.1 µM); in the series on Escherichia coli NIHJ it was 25 µg/mL (≈ 63.1 µM); in [7], 100 µg/mL (≈ 252 µM); in [8], 100 µg/mL (≈ 252 µM); in [9], more than 100 µg/mL. The MIC in the series on Klebsiella pneumoniae DT was 12.5 µg/mL (≈ 31.5 µM); in series [10], more than 100 µg/mL; in series [11], 100 µg/mL (≈ 252 µM); in series [12], 25 µg/mL (≈ 63.1 µM); in series [13], 12.5 µg/mL (≈ 31.5 µM); in series [14], 100 µg/mL (≈ 252 µM). Also, the MIC was 25 µg/mL (≈ 63.1 µM) in the series with Shigella flexneri EW-10; more than 100 µg/mL in [15]; more than 100 µg/mL in series [16]; more than 100 µg/mL in [17]; more than 100 µg/mL in series [18]. For the same compound, the “Basicity, neutrality or acidity” value in series [1] is given as “Acid”. Moreover, the “Stability over pH 8.5” value in [2] (over pH 8.5) is listed as “unstable”. The “Stability in aqueous solution” value in series [2] (pH 3-pH 7, 60° C., 10 minutes) is recorded as “Stable”. For the same compound, the “antimicrobial activity against gram-positive bacteria” value in the series with gram-positive bacteria is listed as “inhibitory”; in the series on gram-positive bacteria (listed as Antibiotic G-6302), “also active against some gram-positive bacteria”. Also, the results for the “antimicrobial activity against gram-negative bacteria” value in the series with gram-negative bacteria and in the series on gram-negative bacteria (listed as Antibiotic G-6302) were “inhibitory” and “mainly active against gram-negative bacteria”, respectively. For the same compound, the Solubility in acetone entry in “Solubility in solvents” is listed as “sparingly soluble”. Moreover, the Solubility in benzene result in “Solubility in solvents” (benzene) is “Insoluble”. For the same compound, the Solubility in chloroform entry in the series “Solubility in solvents” (chloroform) is on record as “Insoluble”. Moreover, the “Solubility in diethyl ether” value in “Solubility in solvents” (diethyl ether) is “Insoluble”. The Solubility in dimethylsulfoxide result in the series “Solubility in solvents” (dimethylsulfoxide) was “soluble”. Further, in the series “Solubility in solvents” (ethanol), the Solubility in ethanol result is “sparingly soluble”. Besides, the “Solubility in ethyl acetate” value in “Solubility in solvents” (ethyl acetate) is “Insoluble”. The Solubility in hexane entry in “Solubility in solvents” (hexane) is “Insoluble”. Further, the Solubility in methanol result in the series “Solubility in solvents” is on record as “soluble”. For the same compound, the “Solubility in petroleum ether” value in the series “Solubility in solvents” (petroleum ether) is given as “Insoluble”. Besides, the Solubility in pyridine result in the series “Solubility in solvents” (pyridine) is “sparingly soluble”. Also, in the series “Solubility in solvents” (water), the Solubility in water result is “readily soluble”. The “protecting action on infected mice” value in the series on Escherichia coli (oral dose of 100 mg/kg), in the series on Escherichia coli (subcutaneous dose of 10 mg/kg), in the series with Klebsiella pneumoniae (oral dose of 100 mg/kg) and in the series on Klebsiella pneumoniae (subcutaneous dose of 10 mg/kg) was “protecting action” throughout.
